# In patent US8765669B2, “Glycosylated GLP-1 peptide” (Glytech, Inc., priority 2008, dated 2014):
# No end group written: not given here.
# Target: T1, DPP-IV (dipeptidyl peptidase IV from porcine kidney) (Sus scrofa, UniProt P22411)
# T1 construct: dipeptidyl peptidase IV from porcine kidney, product of SIGMA; purchased SIGMA; host or cells: porcine kidney (tissue-derived enzyme)
# Assay: Test of resistance to dipeptidyl peptidase IV (DPP-IV)
# Type: in vitro ADME
# Conditions: half-life (t1/2) in DPP-IV solution at 37° C., GLP-1 of Comparative Example 1 defined as standard (=1)
# Description: Each solution mixture was adjusted with 100 mM sodium phosphate buffer to 100 μl in total and allowed to react at 37° C. A 10 μaliquot of the reaction solution was mixed with 15 μl of 10% trifluoroacetic acid prepared in advance in another Eppendorf tube.
# T1 sequence (P22411 whole entry): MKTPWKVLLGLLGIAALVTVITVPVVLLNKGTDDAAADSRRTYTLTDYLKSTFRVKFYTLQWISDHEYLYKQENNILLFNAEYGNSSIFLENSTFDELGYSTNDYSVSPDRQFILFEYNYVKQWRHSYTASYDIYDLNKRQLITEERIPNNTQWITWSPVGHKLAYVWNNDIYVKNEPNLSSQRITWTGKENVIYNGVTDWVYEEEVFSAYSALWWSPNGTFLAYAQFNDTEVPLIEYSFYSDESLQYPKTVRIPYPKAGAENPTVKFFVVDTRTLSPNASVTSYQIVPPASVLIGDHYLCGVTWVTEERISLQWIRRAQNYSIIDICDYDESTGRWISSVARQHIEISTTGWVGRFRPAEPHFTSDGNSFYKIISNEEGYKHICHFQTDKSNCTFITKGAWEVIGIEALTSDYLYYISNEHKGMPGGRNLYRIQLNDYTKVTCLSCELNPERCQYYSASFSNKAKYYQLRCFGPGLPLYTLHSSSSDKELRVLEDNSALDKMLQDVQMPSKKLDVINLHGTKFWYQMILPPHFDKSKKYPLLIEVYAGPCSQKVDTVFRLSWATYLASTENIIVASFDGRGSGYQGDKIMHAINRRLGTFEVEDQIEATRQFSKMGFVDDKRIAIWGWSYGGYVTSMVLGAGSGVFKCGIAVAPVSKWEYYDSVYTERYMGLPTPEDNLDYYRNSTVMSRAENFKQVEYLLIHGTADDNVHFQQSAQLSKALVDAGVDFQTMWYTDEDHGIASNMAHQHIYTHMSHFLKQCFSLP
row,Compound,Relative Resistance
1,36Cys-hyaluronic acid octasaccharide (HA-8) Added GLP-1 Peptide (HAEGTFTSDVSSYLEGQAAKEFIAWLVKGC(hyaluronic acid octasaccharide)G) [Example 9],3
2,"CC[C@H](C)[C@H](NC(=O)[C@H](Cc1ccccc1)NC(=O)[C@H](CCC(=O)O)NC(=O)[C@H](CCCCN)NC(=O)[C@H](C)NC(=O)[C@H](C)NC(=O)[C@H](CCC(N)=O)NC(=O)[C@H](CSCC(=O)N[C@@H]1O[C@H](CO)[C@@H](O[C@@H]2O[C@H](CO)[C@@H](O[C@@H]3O[C@H](CO[C@H]4O[C@H](CO)[C@@H](O)[C@H](O)[C@@H]4O[C@@H]4O[C@H](CO)[C@@H](O[C@@H]5O[C@H](CO[C@]6(C(=O)O)C[C@H](O)[C@@H](NC(C)=O)[C@H]([C@H](O)[C@H](O)CO)O6)[C@H](O)[C@H](O)[C@H]5O)[C@H](O)[C@H]4NC(C)=O)[C@@H](O)[C@H](O[C@H]4O[C@H](CO)[C@@H](O)[C@H](O)[C@@H]4O[C@@H]4O[C@H](CO)[C@@H](O[C@@H]5O[C@H](CO[C@]6(C(=O)O)C[C@H](O)[C@@H](NC(C)=O)[C@H]([C@H](O)[C@H](O)CO)O6)[C@H](O)[C@H](O)[C@H]5O)[C@H](O)[C@H]4NC(C)=O)[C@@H]3O)[C@H](O)[C@H]2NC(C)=O)[C@H](O)[C@H]1NC(C)=O)NC(=O)[C@H](CCC(=O)O)NC(=O)[C@H](CC(C)C)NC(=O)[C@H](Cc1ccc(O)cc1)NC(=O)[C@H](CO)NC(=O)[C@H](CO)NC(=O)[C@@H](NC(=O)[C@H](CC(=O)O)NC(=O)[C@H](CO)NC(=O)[C@@H](NC(=O)[C@H](Cc1ccccc1)NC(=O)[C@@H](NC(=O)CNC(=O)[C@H](CCC(=O)O)NC(=O)[C@H](C)NC(=O)[C@@H](N)Cc1c[nH]cn1)[C@@H](C)O)[C@@H](C)O)C(C)C)C(=O)N[C@@H](CSCC(=O)N[C@@H]1O[C@H](CO)[C@@H](O[C@@H]2O[C@H](CO)[C@@H](O[C@@H]3O[C@H](CO[C@H]4O[C@H](CO)[C@@H](O)[C@H](O)[C@@H]4O[C@@H]4O[C@H](CO)[C@@H](O[C@@H]5O[C@H](CO[C@]6(C(=O)O)C[C@H](O)[C@@H](NC(C)=O)[C@H]([C@H](O)[C@H](O)CO)O6)[C@H](O)[C@H](O)[C@H]5O)[C@H](O)[C@H]4NC(C)=O)[C@@H](O)[C@H](O[C@H]4O[C@H](CO)[C@@H](O)[C@H](O)[C@@H]4O[C@@H]4O[C@H](CO)[C@@H](O[C@@H]5O[C@H](CO[C@]6(C(=O)O)C[C@H](O)[C@@H](NC(C)=O)[C@H]([C@H](O)[C@H](O)CO)O6)[C@H](O)[C@H](O)[C@H]5O)[C@H](O)[C@H]4NC(C)=O)[C@@H]3O)[C@H](O)[C@H]2NC(C)=O)[C@H](O)[C@H]1NC(C)=O)C(=O)N[C@@H](Cc1c[nH]c2ccccc12)C(=O)N[C@@H](CC(C)C)C(=O)N[C@H](C(=O)N[C@@H](CCCCN)C(=O)NCC(=O)N[C@@H](CCCNC(=N)N)C(=O)NCC(=O)O)C(C)C [Example 3, 22 and 30Cys-disialo oligosaccharide Chain Added GLP-1]",32.5
3,"CC[C@H](C)[C@H](NC(=O)[C@H](Cc1ccccc1)NC(=O)[C@H](CCC(=O)O)NC(=O)[C@H](CCCCN)NC(=O)[C@H](C)NC(=O)[C@H](C)NC(=O)[C@H](CCC(N)=O)NC(=O)[C@H](CSCC(=O)N[C@@H]1O[C@H](CO)[C@@H](O[C@@H]2O[C@H](CO)[C@@H](O[C@@H]3O[C@H](CO[C@H]4O[C@H](CO)[C@@H](O)[C@H](O)[C@@H]4O[C@@H]4O[C@H](CO)[C@@H](O[C@@H]5O[C@H](CO[C@]6(C(=O)O)C[C@H](O)[C@@H](NC(C)=O)[C@H]([C@H](O)[C@H](O)CO)O6)[C@H](O)[C@H](O)[C@H]5O)[C@H](O)[C@H]4NC(C)=O)[C@@H](O)[C@H](O[C@H]4O[C@H](CO)[C@@H](O)[C@H](O)[C@@H]4O[C@@H]4O[C@H](CO)[C@@H](O[C@@H]5O[C@H](CO[C@]6(C(=O)O)C[C@H](O)[C@@H](NC(C)=O)[C@H]([C@H](O)[C@H](O)CO)O6)[C@H](O)[C@H](O)[C@H]5O)[C@H](O)[C@H]4NC(C)=O)[C@@H]3O)[C@H](O)[C@H]2NC(C)=O)[C@H](O)[C@H]1NC(C)=O)NC(=O)[C@H](CCC(=O)O)NC(=O)[C@H](CC(C)C)NC(=O)[C@H](Cc1ccc(O)cc1)NC(=O)[C@H](CO)NC(=O)[C@H](CO)NC(=O)[C@@H](NC(=O)[C@H](CC(=O)O)NC(=O)[C@H](CO)NC(=O)[C@@H](NC(=O)[C@H](Cc1ccccc1)NC(=O)[C@@H](NC(=O)CNC(=O)[C@H](CCC(=O)O)NC(=O)[C@H](C)NC(=O)[C@@H](N)Cc1c[nH]cn1)[C@@H](C)O)[C@@H](C)O)C(C)C)C(=O)N[C@@H](C)C(=O)N[C@@H](Cc1c[nH]c2ccccc12)C(=O)N[C@@H](CC(C)C)C(=O)N[C@H](C(=O)N[C@@H](CCCCN)C(=O)NCC(=O)N[C@@H](CSCC(=O)N[C@@H]1O[C@H](CO)[C@@H](O[C@@H]2O[C@H](CO)[C@@H](O[C@@H]3O[C@H](CO[C@H]4O[C@H](CO)[C@@H](O)[C@H](O)[C@@H]4O[C@@H]4O[C@H](CO)[C@@H](O[C@@H]5O[C@H](CO[C@]6(C(=O)O)C[C@H](O)[C@@H](NC(C)=O)[C@H]([C@H](O)[C@H](O)CO)O6)[C@H](O)[C@H](O)[C@H]5O)[C@H](O)[C@H]4NC(C)=O)[C@@H](O)[C@H](O[C@H]4O[C@H](CO)[C@@H](O)[C@H](O)[C@@H]4O[C@@H]4O[C@H](CO)[C@@H](O[C@@H]5O[C@H](CO[C@]6(C(=O)O)C[C@H](O)[C@@H](NC(C)=O)[C@H]([C@H](O)[C@H](O)CO)O6)[C@H](O)[C@H](O)[C@H]5O)[C@H](O)[C@H]4NC(C)=O)[C@@H]3O)[C@H](O)[C@H]2NC(C)=O)[C@H](O)[C@H]1NC(C)=O)C(=O)NCC(=O)O)C(C)C [Example 4, 22 and 36Cys-disialo oligosaccharide Chain Added GLP-1]",22.5
4,"CC[C@H](C)[C@H](NC(=O)[C@H](Cc1ccccc1)NC(=O)[C@H](CCC(=O)O)NC(=O)[C@H](CCCCN)NC(=O)[C@H](C)NC(=O)[C@H](C)NC(=O)[C@H](CCC(N)=O)NC(=O)CNC(=O)[C@H](CCC(=O)O)NC(=O)[C@H](CC(C)C)NC(=O)[C@H](Cc1ccc(O)cc1)NC(=O)[C@H](CO)NC(=O)[C@H](CO)NC(=O)[C@@H](NC(=O)[C@H](CC(=O)O)NC(=O)[C@H](CO)NC(=O)[C@@H](NC(=O)[C@H](Cc1ccccc1)NC(=O)[C@@H](NC(=O)CNC(=O)[C@H](CCC(=O)O)NC(=O)[C@H](C)NC(=O)[C@@H](N)Cc1c[nH]cn1)[C@@H](C)O)[C@@H](C)O)C(C)C)C(=O)N[C@@H](CSCC(=O)N[C@@H]1O[C@H](CO)[C@@H](O[C@@H]2O[C@H](CO)[C@@H](O[C@@H]3O[C@H](CO[C@H]4O[C@H](CO)[C@@H](O)[C@H](O)[C@@H]4O[C@@H]4O[C@H](CO)[C@@H](O[C@@H]5O[C@H](CO[C@]6(C(=O)O)C[C@H](O)[C@@H](NC(C)=O)[C@H]([C@H](O)[C@H](O)CO)O6)[C@H](O)[C@H](O)[C@H]5O)[C@H](O)[C@H]4NC(C)=O)[C@@H](O)[C@H](O[C@H]4O[C@H](CO)[C@@H](O)[C@H](O)[C@@H]4O[C@@H]4O[C@H](CO)[C@@H](O[C@@H]5O[C@H](CO[C@]6(C(=O)O)C[C@H](O)[C@@H](NC(C)=O)[C@H]([C@H](O)[C@H](O)CO)O6)[C@H](O)[C@H](O)[C@H]5O)[C@H](O)[C@H]4NC(C)=O)[C@@H]3O)[C@H](O)[C@H]2NC(C)=O)[C@H](O)[C@H]1NC(C)=O)C(=O)N[C@@H](Cc1c[nH]c2ccccc12)C(=O)N[C@@H](CC(C)C)C(=O)N[C@H](C(=O)N[C@@H](CCCCN)C(=O)NCC(=O)N[C@@H](CSCC(=O)N[C@@H]1O[C@H](CO)[C@@H](O[C@@H]2O[C@H](CO)[C@@H](O[C@@H]3O[C@H](CO[C@H]4O[C@H](CO)[C@@H](O)[C@H](O)[C@@H]4O[C@@H]4O[C@H](CO)[C@@H](O[C@@H]5O[C@H](CO[C@]6(C(=O)O)C[C@H](O)[C@@H](NC(C)=O)[C@H]([C@H](O)[C@H](O)CO)O6)[C@H](O)[C@H](O)[C@H]5O)[C@H](O)[C@H]4NC(C)=O)[C@@H](O)[C@H](O[C@H]4O[C@H](CO)[C@@H](O)[C@H](O)[C@@H]4O[C@@H]4O[C@H](CO)[C@@H](O[C@@H]5O[C@H](CO[C@]6(C(=O)O)C[C@H](O)[C@@H](NC(C)=O)[C@H]([C@H](O)[C@H](O)CO)O6)[C@H](O)[C@H](O)[C@H]5O)[C@H](O)[C@H]4NC(C)=O)[C@@H]3O)[C@H](O)[C@H]2NC(C)=O)[C@H](O)[C@H]1NC(C)=O)C(=O)NCC(=O)O)C(C)C [Example 5, 30,36Cys-disialo oligosaccharide Chain Added GLP-1 Peptide]",7.5
5,"CC[C@H](C)[C@H](NC(=O)[C@H](Cc1ccccc1)NC(=O)[C@H](CCC(=O)O)NC(=O)[C@H](CCCCN)NC(=O)[C@H](C)NC(=O)[C@H](C)NC(=O)[C@H](CCC(N)=O)NC(=O)CNC(=O)[C@H](CCC(=O)O)NC(=O)[C@H](CC(C)C)NC(=O)[C@H](Cc1ccc(O)cc1)NC(=O)[C@H](CO)NC(=O)[C@H](CO)NC(=O)[C@@H](NC(=O)[C@H](CC(=O)O)NC(=O)[C@H](CO)NC(=O)[C@@H](NC(=O)[C@H](Cc1ccccc1)NC(=O)[C@@H](NC(=O)CNC(=O)[C@H](CCC(=O)O)NC(=O)[C@H](C)NC(=O)[C@@H](N)Cc1c[nH]cn1)[C@@H](C)O)[C@@H](C)O)C(C)C)C(=O)N[C@@H](CSCC(=O)N[C@@H]1O[C@H](CO)[C@@H](O)[C@H](O[C@@H]2O[C@H](C(=O)O)[C@@H](O[C@@H]3O[C@H](CO)[C@@H](O)[C@H](O[C@@H]4O[C@H](C(=O)O)[C@@H](O)[C@H](O)[C@H]4O)[C@H]3NC(C)=O)[C@H](O)[C@H]2O)[C@H]1NC(C)=O)C(=O)N[C@@H](Cc1c[nH]c2ccccc12)C(=O)N[C@@H](CC(C)C)C(=O)N[C@H](C(=O)N[C@@H](CCCCN)C(=O)NCC(=O)N[C@@H](CCCNC(=N)N)C(=O)NCC(=O)O)C(C)C [Example 6, 30Cys-hyaluronic acid tetrasaccharide (HA-4) Added GLP-1 Peptide]",2.1
